Molecular target: T1, Regulator of G-protein signaling 8 (Homo sapiens, UniProt P57771)
T1 sequence (P57771 whole entry): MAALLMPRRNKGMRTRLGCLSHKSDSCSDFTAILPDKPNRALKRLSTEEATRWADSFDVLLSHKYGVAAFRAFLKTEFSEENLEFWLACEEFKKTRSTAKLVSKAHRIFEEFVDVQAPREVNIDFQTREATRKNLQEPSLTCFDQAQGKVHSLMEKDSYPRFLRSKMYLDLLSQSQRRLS
Assay: small molecules altering RGS8 binding of Galphao – biochemical, multiplex bead flow cytometry, SAR compounds, SAR follow-up (AID 2307)

Ki [µM] | Structure (SMILES)
0.02 | NS(=O)(=O)c1ccc(N=NCc2ccc(O)c(O)c2O)c([N+](=O)[O-])c1 [4-[[(E)-(2,3-dihydroxy-4-oxo-1-cyclohexa-2,5-dienylidene)methyl]hydrazo]-3-nitrobenzenesulfonamide]
0.1 | O=C(COc1ccccc1C(=O)NN=Cc1ccc(O)c(O)c1)NN=Cc1ccc(O)c(O)c1 [N''-[(Z)-(3-hydroxy-4-oxo-1-cyclohexa-2,5-dienylidene)methyl]-2-[2-[[(Z)-(3-hydroxy-4-oxo-1-cyclohexa-2,5-dienylidene)methyl]hydrazo]-2-oxoethoxy]benzohydrazide]
